In patent publication US20250353841A1 (BIOGEN MA INC., priority 2022, published 2025):

These compounds were tested on mutant Huntington (HTT) protein (assay: HTT Mutant HTRF iPSC assay (mHTT protein lowering)). Conditions: human iPSC derived from a HTT patient with a poly-Q49 mutation.
Assay type: cell-based

Compound	IC50 [nM]
COc1cc(-c2cc(C#N)c3nc(C)cn3c2)cc2cn(C3CCNCC3)nc12 [Compound 546, 6-(7-methoxy-2-(piperidin-4-yl)-2H-indazol-5-yl)-2-methylimidazo[1,2-a]pyridine-8-carbonitrile]	1000 to 9000
CCN1CCC(N(C)c2nc3c(F)cc(-c4cc(C)c5nc(C)cn5n4)cc3o2)CC1 [Compound 502, 6-(2,8-dimethylimidazo[1,2-b]pyridazin-6-yl)-N-(1-ethylpiperidin-4-yl)-4-fluoro-N-methylbenzo[d]oxazol-2-amine]	< 100
Cc1cn2nc(-c3cc(F)c4nc(C5CCN(C6(C)CC6)CC5)cn4c3)cc(C)c2n1 [Compound 226, 6-[8-fluoro-2-[1-(1-methylcyclopropyl)-4-piperidyl]imidazo[1,2-a]pyridin-6-yl]-2,8-dimethyl-imidazo[1,2-b]pyridazine]	100 to 1000
Fc1cc(-c2ccn3nccc3c2)cn2cc(C3CCNCC3)nc12 [Compound 34, 8-fluoro-2-(piperidin-4-yl)-6-(pyrazolo[1,5-a]pyridin-5-yl)imidazo[1,2-a]pyridine]	1000 to 9000
Cc1cn2nc(-c3cc(F)c4nn(C5CCNCC5)nc4c3)cc(C)c2n1 [Compound 139, 6-(2,8-dimethylimidazo[1,2-b]pyridazin-6-yl)-4-fluoro-2-(piperidin-4-yl)-2H-benzo[d][1,2,3]triazole]	< 100
Cc1cn2nc(-c3cc(F)c4nc(NC(=O)C5CN(C6CC6)C5)cn4c3)cc(C)c2n1 [Compound 265, 1-cyclopropyl-N-(6-(2,8-dimethylimidazo[1,2-b]pyridazin-6-yl)-8-fluoroimidazo[1,2-a]pyridin-2-yl)azetidine-3-carboxamide]	< 100
Cc1cn2nc(-c3cc(F)c4nc([C@H]5[C@@H]6CN(C)C[C@@H]65)cn4c3)cc2c(C)n1 [Compound 222, 2-(8-fluoro-2-((1R,5S,6r)-3-methyl-3-azabicyclo[3.1.0]hexan-6-yl)imidazo[1,2-a]pyridin-6-yl)-4,6-dimethylpyrazolo[1,5-a]pyrazine]	< 100
CCN1CCC(c2cn3cc(-c4ccc5nc(C)cn5n4)cc(F)c3n2)CC1 [Compound 3, 6-(2-(1-ethylpiperidin-4-yl)-8-fluoroimidazo[1,2-a]pyridin-6-yl)-2-methylimidazo[1,2-b]pyridazine]	< 100
Cc1cn2nc(-c3cc(OC(F)(F)F)c4nc(C5CCNCC5)cn4c3)cc(C)c2n1 [Compound 549, 2,8-dimethyl-6-(2-(piperidin-4-yl)-8-(trifluoromethoxy)imidazo[1,2-a]pyridin-6-yl)imidazo[1,2-b]pyridazine]	100 to 1000
Cc1cn2nc(-c3cc(F)c4nc(NC(=O)C5CCN(C)CC5)nn4c3)cc(C)c2n1 [Compound 327, N-(6-(2,8-dimethylimidazo[1,2-b]pyridazin-6-yl)-8-fluoro-[1,2,4]triazolo[1,5-a]pyridin-2-yl)-1-methylpiperidine-4-carboxamide]	< 100
COc1cc(-c2cc(F)c3nc(C)cn3c2)cc2cn(C3CCNCC3)nc12 [Compound 545, 5-(8-fluoro-2-methylimidazo[1,2-a]pyridin-6-yl)-7-methoxy-2-(piperidin-4-yl)-2H-indazole]	1000 to 9000
Cc1cn2nc(-c3cc(F)c4nc(C56CCC(N)(CC5)CC6)cn4c3)cc(C)c2n1 [Compound 108, 4-(6-(2,8-dimethylimidazo[1,2-b]pyridazin-6-yl)-8-fluoroimidazo[1,2-a]pyridin-2-yl)bicyclo[2.2.2]octan-1-amine]	< 100
Cc1cc(-c2cc(F)c3nn(C4CCNCC4)cc3c2)nc2cn(C)nc12 [Compound 353, 5-(7-fluoro-2-(piperidin-4-yl)-2H-indazol-5-yl)-2,7-dimethyl-2H-pyrazolo[4,3-b]pyridine]	100 to 1000
Cc1cn2cc(-c3cc(F)c4nc(C5CCNCC5)cn4c3)cc(F)c2n1 [Compound 97, 8,8′-difluoro-2-methyl-2′-(piperidin-4-yl)-6,6′-biimidazo[1,2-a]pyridine]	100 to 1000
Cc1cn2nc(-c3cc(F)c4nc(C5CCN(C)C6(CC6)C5)cn4c3)cc(C)c2n1 (single isomer, unassigned) [Compound 209]	< 100
Cc1cn2nc(-c3cc(F)c4nc(N5CCC(N(C)C)CC5)oc4c3)cc(C(F)(F)F)c2n1 [Compound 506, 1-(4-fluoro-6-(2-methyl-8-(trifluoromethyl)imidazo [1,2-b]pyridazin-6-yl)benzo[d]oxazol-2-yl)-N,N-dimethylpiperidin-4-amine]	< 100
Cn1cc2cc(-c3cc(F)c4nc([C@H]5CNCCO5)cn4c3)cc(F)c2n1 (single isomer, unassigned) [Compound 70]	1000 to 9000
Cc1cn2nc(-c3cc(F)c4nc(CC5CCN(C)CC5)oc4c3)cc(C)c2n1 [Compound 459, 6-(2,8-dimethylimidazo[1,2-b]pyridazin-6-yl)-4-fluoro-2-((1-methylpiperidin-4-yl)methyl)benzo[d] oxazole]	< 100

Compound	IC50 [nM]
Cc1cn2nc(-c3cc(F)c4nc(N5CCC56CCN(C)CC6)oc4c3)cc(C)c2n1 [Compound 493, 6-(2,8-dimethylimidazo[1,2-b]pyridazin-6-yl)-4-fluoro-2-(7-methyl-1,7-diazaspiro[3.5]nonan-1-yl)benzo[d]oxazole]	100 to 1000
Fc1cc(-c2ccc3sncc3c2)cn2cc(C3CCNCC3)nc12 [Compound 98, 5-(8-fluoro-2-(piperidin-4-yl)imidazo[1,2-a]pyridin-6-yl)benzo[d]isothiazole]	1000 to 9000
Cc1cn2nc(-c3cc(F)c4nc(C5CCNCC5)cn4c3)cc(C3CC3)c2n1 [Compound 194, 8-cyclopropyl-6-(8-fluoro-2-(piperidin-4-yl)imidazo[1,2-a]pyridin-6-yl)-2-methylimidazo[1,2-b]pyridazine]	< 100
Cc1cn2nc(-c3cc(F)c4nc(NC(=O)C5CCNCC5)cn4c3)cc(C)c2n1 [Compound 250, N-(6-(2,8-dimethylimidazo[1,2-b]pyridazin-6-yl)-8-fluoroimidazo[1,2-a]pyridin-2-yl)piperidine-4-carboxamide]	100 to 1000
Cc1cn2cc(-c3cc(F)c4nc(C5CCNCC5)nn4c3)cc(F)c2n1 [Compound 151, 8-fluoro-6-(8-fluoro-2-methylimidazo[1,2-a]pyridin-6-yl)-2-(piperidin-4-yl)-[1,2,4]triazolo[1,5-a]pyridine]	1000 to 9000
Cc1cn2nc(-c3cc(F)c4nc(NC(=O)[C@H]5CN[C@@H]5C)cn4c3)cc(C)c2n1 (stereo in doubt) [Compound 286, rel-(2R,3S)-N-(6-(2,8-dimethylimidazo[1,2-b]pyridazin-6-yl)-8-fluoroimidazo[1,2-a]pyridin-2-yl)-2-methylazetidine-3-carboxamide]	< 100
Cc1cc2nc(-c3cc(F)c4nc(C5CCNCC5)cn4c3)ncc2s1 [Compound 201, 2-(8-fluoro-2-(piperidin-4-yl)imidazo[1,2-a]pyridin-6-yl)-6-methylthieno[3,2-d]pyrimidine]	100 to 1000
Cc1cn2nc(-c3cc(F)c4nn(C5CCNCC5)cc4c3)ccc2n1 [Compound 365, 6-(7-fluoro-2-(piperidin-4-yl)-2H-indazol-5-yl)-2-methylimidazo[1,2-b]pyridazine]	< 100
Cc1cn2nc(-c3cc(F)c4[nH]c(C5C6CN(C)CC65)nc4c3)cc(C)c2n1 (stereo not drawn) [Compound 430, 6-(7-fluoro-2-(3-methyl-3-azabicyclo[3.1.0]hexan-6-yl)-1H-benzo[d]imidazol-5-yl)-2,8-dimethylimidazo[1,2-b]pyridazine]	< 100
Cc1cn2nc(-c3cc(F)c4nc(C5CCN(CC6CC6)CC5)nn4c3)cc(C)c2n1 [Compound 438, 2-(1-(cyclopropylmethyl)piperidin-4-yl)-6-(2,8-dimethylimidazo[1,2-b]pyridazin-6-yl)-8-fluoro-[1,2,4]triazolo[1,5-a]pyridine]	100 to 1000
Cc1cn2nc(-c3cc(F)c4nn(C5CCN(C)CC5)nc4c3)cc(C)c2n1 [Compound 380, 6-(2,8-dimethylimidazo[1,2-b]pyridazin-6-yl)-4-fluoro-2-(1-methyl-4-piperidyl)benzotriazole]	100 to 1000
Cc1cn2nc(-c3cc(F)c4nc([C@H]5CC[C@]6(CCNC6)CC5)nn4c3)cc(C)c2n1 [Compound 451, (5s,8s)-8-(6-(2,8-dimethylimidazo[1,2-b]pyridazin-6-yl)-8-fluoro-[1,2,4]triazolo[1,5-a]pyridin-2-yl)-2-azaspiro[4.5]decane]	100 to 1000
Cc1cn2nc(-c3cc(F)c4nc(NC(=O)C5CCNC6CC65)cn4c3)cc(C)c2n1 (stereo not drawn) [Compound 271, N-(6-(2,8-dimethylimidazo[1,2-b]pyridazin-6-yl)-8-fluoroimidazo[1,2-a]pyridin-2-yl)-2-azabicyclo[4.1.0] heptane-5-carboxamide]	< 100
Cc1cn2nc(-c3cc(F)c4nc(C5CC=CC5)cn4c3)cc(C)c2n1 [Compound 196, 6-(2-cyclopent-3-en-1-yl-8-fluoro-imidazo[1,2-a]pyridin-6-yl)-2,8-dimethyl-imidazo[1,2-b]pyridazine]	100 to 1000
Cc1cn2nc(-c3cc(F)c4nc(NC(=O)C5(C)CN(C6CC6)C5)cn4c3)cc(C)c2n1 [Compound 282, 1-cyclopropyl-N-(6-(2,8-dimethylimidazo[1,2-b]pyridazin-6-yl)-8-fluoroimidazo[1,2-a]pyridin-2-yl)-3-methylazetidine-3-carboxamide]	< 100
Cc1cn2nc(-c3cc(F)c4nc([C@H]5[C@@H]6CN(C)C[C@@H]65)nn4c3)cc(C)c2n1 [Compound 453, 6-(2,8-dimethylimidazo[1,2-b]pyridazin-6-yl)-8-fluoro-2-[(1S,5R)-3-methyl-3-azabicyclo[3.1.0]hexan-6-yl]-[1,2,4]triazolo[1,5-a]pyridine]	100 to 1000
Cc1nc2ccc(-c3ccc4nc([C@H]5[C@@H]6CN(C)C[C@@H]65)cn4c3)nn2n1 [Compound 553, 2-methyl-6-(2-((1R,5S,6r)-3-methyl-3-azabicyclo[3.1.0]hexan-6-yl)imidazo[1,2-a]pyridin-6-yl)-[1,2,4]triazolo[1,5-b]pyridazine]	100 to 1000
CNC1CC(C(=O)Nc2cn3cc(-c4cc(C)c5nc(C)cn5n4)cc(F)c3n2)C1 (stereo not drawn) [Compound 249, N-(6-(2,8-dimethylimidazo[1,2-b]pyridazin-6-yl)-8-fluoroimidazo[1,2-a]pyridin-2-yl)-3-(methylamino)cyclobutane-1-carboxamide]	< 100
